Laboratory results reported in patent US20190351006A1, “METHODS OF ADMINISTRATION OF NMDA RECEPTOR AGONISTS” (Naurex Inc., priority 2017, published 2019).
Peptide text beside a SMILES is read from it.

Tests used:
C57BL/6J mice = test: In vivo microdialysis of neurotransmitter efflux in mPFC and HIP; design: species or system Male C57BL/6J mice; details: rapastinel 1 mg/kg subcu, ketamine 30 mg/kg
Method: (§1) Animals: Male C57BL/6J mice 22-25 g (21/2 to 3 month old) were used is these studies. Drugs: Rapastinel was obtained from SAI Life Sciences (India). Rapastinel, PCP, and ketamine were dissolved in 0.9% sterile saline (Sal). PCP and ketamine were administered intraperitoneally (ip), at a volume of 10 mL/kg body weight. Rapastinel was given subcutaneously (subcu), and rapamycin was given intracerebroventricularly (icy). Drug Treatments: Male C57BL/6J mice were randomly assigned to treatment groups of 10 per group. To develop the cognitive deficit, groups of 10 mice were treated with PCP (10 mg/kg i.p., twice a day for 7 days) followed by a 7-day washout period. Following the washout period, the subchronic PCP mice were tested to determine that an NOR deficit had been established. See Rajagopal et al 3,4. See FIG. 7, for treatment schedules. Behavior, in vivo Microdialysis (MD) and ICV Procedures—The procedures have been described in detail in References 3,10,11,12,13. See FIG. 7. for pictorial representations of drug treatment protocols. Rapastinel's ability to restore episodic memory (NOR) and cognitive flexibility (RL), like its antidepressant action in rodents, is mTOR dependent as indicated by blockade by ICV rapamycin. […]

scPCP-treated mice [1] = test: Novel object recognition (NOR) in subchronic PCP (scPCP) mice; assay type: in vivo, Male C57BL/6J mice
Method: Animals: Male C57BL/6J mice 22-25 g (21/2 to 3 month old) were used is these studies. Drugs: Rapastinel was obtained from SAI Life Sciences (India). Rapastinel, PCP, and ketamine were dissolved in 0.9% sterile saline (Sal). PCP and ketamine were administered intraperitoneally (ip), at a volume of 10 mL/kg body weight. Rapastinel was given subcutaneously (subcu), and rapamycin was given intracerebroventricularly (icy). Drug Treatments: Male C57BL/6J mice were randomly assigned to treatment groups of 10 per group. To develop the cognitive deficit, groups of 10 mice were treated with PCP (10 mg/kg i.p., twice a day for 7 days) followed by a 7-day washout period. Following the washout period, the subchronic PCP mice were tested to determine that an NOR deficit had been established. See Rajagopal et al 3,4. See FIG. 7, for treatment schedules. Behavior, in vivo Microdialysis (MD) and ICV Procedures—The procedures have been described in detail in References 3,10,11,12,13. See FIG. 7. for pictorial representations of drug treatment protocols. Rapastinel's ability to restore episodic memory (NOR) and cognitive flexibility (RL), like its antidepressant action in rodents, is mTOR dependent as indicated by blockade by ICV rapamycin. […] Increase in cortical DA efflux, in transient and subchronic rescue by rapastinel, may be important for triggering neuroplastic changes in AMPAR modulation of the activity of principal neurons in mPFC and HIP.

scPCP-treated mice [2] = test: Reversal learning (RL) task in subchronic PCP mice; assay type: in vivo, Male C57BL/6J mice
Method: as §1

[3] = PCP 10 mg/kg i.p. twice a day for 7 days, then 7-day washout

| SMILES | Neurotransmitter efflux in mPFC (C57BL/6J mice) | DI in NOR vs vehicle-treated mice (scPCP-treated mice [1]; [3]) | Percent correct responses in RL vs veh-treated mice (scPCP-treated mice [2]; [3]) | Duration of rescue of NOR deficit after subchronic rapastinel, 5 days (scPCP-treated mice [1]; scPCP mice, 1 mg/kg sc, b.i.d. for 5 days) | NOR deficit (DI), acute rapastinel (scPCP-treated mice [1]; scPCP mice, 1 mg/kg subcu, 30 min before AT) | Reversal of scPCP-induced NOR deficit, 5 day vs 3 day treatment (scPCP-treated mice [1]; scPCP mice, 1 mg/kg subcu, b.i.d. for 5 days) | NOR after a single acute dose once the subchronic effect had ended (scPCP-treated mice [1]; scPCP mice, single dose 1 mg/kg sc, 30 min prior to AT, week 10 (or week 11)) | RL deficit (percent correct responses), acute rapastinel (scPCP-treated mice [2]; scPCP mice, 1 mg/kg sc, 30 min before reversal phase of the RL task) |
| --- | --- | --- | --- | --- | --- | --- | --- | --- |
| CNC1(c2ccccc2Cl)CCCCC1=O (stereo not drawn) [Ketamine, ketamine, reference compound] | very large increases in the efflux of ACh, DA, 5-HT, DOPAC, 5-HIAA, and glutamate, and serine | – | – | – | – | – | – | – |
| c1ccc(C2(N3CCCCC3)CCCCC2)cc1 [PCP, reference compound] | – | reduced DI | reduced percent correct responses | – | – | – | – | – |
| C[C@@H](O)[C@H](N)C(=O)N1CCC[C@H]1C(=O)N1CCC[C@H]1C(=O)N[C@H](C(N)=O)[C@@H](C)O [rapastinel] (H-TPPT-NH2) | small selective increase in DA efflux | – | – | at least 10 weeks | rescued NOR deficit | longer compared to 3 day treatment | restored NOR | rescued RL deficit |
